From paper PMC12452633 (RSC Medicinal Chemistry, 2025) come the findings set out here.

One assay has as its target Ku70/80 (Homo sapiens, UniProt P12956+P13010). The experiment in a line: Ku–DNA binding EMSA. The note with it: for IC50: Ku70/80 (IC50), purified Ku70/80, direct DNA binding activity by EMSA. (In EMSA bound probe runs differently from free probe, usually more slowly.)
The next assay deals with DNA-PK (Homo sapiens, UniProt P12956+P13010). The experiment in a line: DNA-PK phosphoryl-transferase catalytic. The format is biochemical.
Chain of DNA-PK (P12956 whole entry): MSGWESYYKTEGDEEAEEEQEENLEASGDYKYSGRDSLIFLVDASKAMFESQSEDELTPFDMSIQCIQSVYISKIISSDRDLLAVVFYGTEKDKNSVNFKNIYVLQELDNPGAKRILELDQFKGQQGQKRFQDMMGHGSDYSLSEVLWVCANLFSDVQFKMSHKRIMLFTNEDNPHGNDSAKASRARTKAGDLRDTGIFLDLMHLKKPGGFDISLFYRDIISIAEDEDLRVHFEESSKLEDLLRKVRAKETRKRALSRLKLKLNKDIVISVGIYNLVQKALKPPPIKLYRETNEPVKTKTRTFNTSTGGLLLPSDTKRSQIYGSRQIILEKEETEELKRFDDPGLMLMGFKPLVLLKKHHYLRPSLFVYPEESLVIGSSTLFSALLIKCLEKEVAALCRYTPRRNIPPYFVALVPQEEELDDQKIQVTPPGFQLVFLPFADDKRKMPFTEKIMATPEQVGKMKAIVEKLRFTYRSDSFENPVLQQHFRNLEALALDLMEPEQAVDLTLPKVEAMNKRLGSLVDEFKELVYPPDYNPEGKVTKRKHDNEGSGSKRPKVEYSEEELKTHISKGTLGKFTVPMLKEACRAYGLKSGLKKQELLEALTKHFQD
Chain of DNA-PK (P13010 whole entry): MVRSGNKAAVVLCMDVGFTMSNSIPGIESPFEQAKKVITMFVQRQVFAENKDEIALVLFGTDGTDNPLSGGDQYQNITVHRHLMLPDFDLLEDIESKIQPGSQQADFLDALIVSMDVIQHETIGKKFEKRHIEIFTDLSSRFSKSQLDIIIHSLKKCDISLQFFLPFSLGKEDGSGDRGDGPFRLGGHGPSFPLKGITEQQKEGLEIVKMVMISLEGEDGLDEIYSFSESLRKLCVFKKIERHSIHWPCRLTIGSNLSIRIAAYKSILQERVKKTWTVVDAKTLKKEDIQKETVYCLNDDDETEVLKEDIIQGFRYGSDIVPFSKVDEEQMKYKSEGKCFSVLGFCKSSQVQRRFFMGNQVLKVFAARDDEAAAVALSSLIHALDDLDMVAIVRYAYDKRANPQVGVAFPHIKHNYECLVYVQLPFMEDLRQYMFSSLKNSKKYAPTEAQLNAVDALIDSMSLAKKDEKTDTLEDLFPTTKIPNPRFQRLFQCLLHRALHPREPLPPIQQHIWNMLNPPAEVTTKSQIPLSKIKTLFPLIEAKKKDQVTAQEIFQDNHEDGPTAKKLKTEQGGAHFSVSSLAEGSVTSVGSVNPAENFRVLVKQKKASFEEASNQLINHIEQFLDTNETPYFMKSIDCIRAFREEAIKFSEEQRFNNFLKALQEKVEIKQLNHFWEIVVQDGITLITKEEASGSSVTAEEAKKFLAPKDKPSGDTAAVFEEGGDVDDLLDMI
[1] abbreviates: CF3 in place of CH3 on pyrazolone ring.

A value given as a limit tells only on which side of the number the result lay.

Chain of Ku70/80 (P12956 whole entry): as the sequence (P12956 whole entry) above
Chain of Ku70/80 (P13010 whole entry): as the sequence (P13010 whole entry) above

Take `O=C(O)c1cccc(N2N=C(C(F)(F)F)/C(=C/c3ccc(-c4ccc(Cl)c(C(=O)O)c4)o3)C2=O)c1` [Compound 16, (Z)-5-(5-((1-(3-carboxyphenyl)-5-oxo-3-(trifluoromethyl)-1,5-dihydro-4H-pyrazol-4-ylidene)methyl)furan-2-yl)-2-chlorobenzoic acid]: the IC50 on Ku70/80 amounted to 16.4 ± 3.94 µM.
For `CC1=NN(c2cccc(C(=O)O)c2)C(=O)/C1=C\c1ccc(-c2ccc(Cl)c(C(=O)NCc3ccccc3)c2)o1` [Compound 37, (Z)-3-(4-((5-(3-(Benzylcarbamoyl)-4-chlorophenyl)furan-2-yl)methylene)-3-methyl-5-oxo-4,5-dihydro-1H-pyrazol-1-yl)benzoic acid], the IC50 was 0.83 ± 0.09 µM against DNA-PK and 8.22 ± 0.45 µM at Ku70/80.
Taken in the same sequence, the figures for `CC1=NN(c2cccc(C(=O)O)c2)C(=O)/C1=C\c1ccc(-c2ccc(Cl)c(C(=O)NCc3ccccc3Cl)c2)o1` [Compound 38, (Z)-3-(4-((5-(4-Chloro-3-((2-chlorobenzyl)carbamoyl)phenyl)furan-2-yl)methylene)-3-methyl-5-oxo-4,5-dihydro-1H-pyrazol-1-yl)benzoic acid] were 1.74 ± 0.61 µM and 3.55 ± 0.4 µM.
On to `CC1=NN(c2cccc(C(=O)O)c2)C(=O)/C1=C\c1ccc(-c2ccc(Cl)c(C(=O)NCC3CCCCC3)c2)o1` [Compound 39, (Z)-3-(4-((5-(4-Chloro-3-((cyclohexylmethyl)carbamoyl)phenyl)furan-2-yl)methylene)-3-methyl-5-oxo-4,5-dihydro-1H-pyrazol-1-yl)benzoic acid], for which the IC50 at Ku70/80 came out at 22.6 ± 4.4 µM.
In the case of `COc1cccc(NC(=O)c2cc(-c3ccc(/C=C4\C(=O)N(c5cccc(C(=O)O)c5)N=C4C)s3)ccc2Cl)c1` [Compound 40, (Z)-3-(4-((5-(4-Chloro-3-((3-methoxyphenyl)carbamoyl)phenyl)thiophen-2-yl)methylene)-3-methyl-5-oxo-4,5-dihydro-1H-pyrazol-1-yl)benzoic acid], the IC50 against DNA-PK is 1.72 ± 0.18 µM; at Ku70/80 it was 7.18 ± 2.24 µM.
Taken in the same sequence, the figures for `COc1cccc(NC(=O)c2cc(-c3ccc(/C=C4\C(=O)N(c5ccc(C(=O)O)cc5)N=C4C)s3)ccc2Cl)c1` [Compound 41, (Z)-4-(4-((5-(4-Chloro-3-((3-methoxyphenyl)carbamoyl)phenyl)thiophen-2-yl)methylene)-3-methyl-5-oxo-4,5-dihydro-1H-pyrazol-1-yl)benzoic acid] were 0.53 ± 0.07 µM and 9.04 ± 0.36 µM.
For `CC1=NN(c2cccc(C(=O)O)c2)C(=O)/C1=C\c1ccc(-c2ccc(Cl)c(C(=O)NCC3CC3)c2)s1` [Compound 42, (Z)-3-(4-((5-(4-Chloro-3-((cyclopropylmethyl)carbamoyl)phenyl)thiophen-2-yl)methylene)-3-methyl-5-oxo-4,5-dihydro-1H-pyrazol-1-yl)benzoic acid], in that order: 3.04 ± 0.7 µM and 11.1 ± 0.76 µM.
In the case of `CC1=NN(c2cccc(C(=O)O)c2)C(=O)/C1=C\c1ccc(-c2ccc(Cl)c(C(=O)NCc3ccc(F)cc3)c2)s1` [Compound 43, (Z)-3-(4-((5-(4-Chloro-3-((4-fluorobenzyl)carbamoyl)phenyl)thiophen-2-yl)methylene)-3-methyl-5-oxo-4,5-dihydro-1H-pyrazol-1-yl)benzoic acid], the IC50 came out at 3.24 µM on DNA-PK and 10.1 ± 1.4 µM at Ku70/80.
For `COc1cccc(NC(=O)c2cc(-c3ccc(/C=C4\C(=O)N(c5cccc(C(=O)O)c5)N=C4C)[nH]3)ccc2Cl)c1` [Compound 44, (Z)-3-(4-((5-(4-Chloro-3-((3-methoxyphenyl)carbamoyl)phenyl)-1H-pyrrol-2-yl)methylene)-3-methyl-5-oxo-4,5-dihydro-1H-pyrazol-1-yl)benzoic acid], in that order: 1.57 ± 0.73 µM and 9.77 ± 4.16 µM.
As to `CC1=NN(c2cccc(C(=O)O)c2)C(=O)/C1=C\c1ccc(-c2ccc(Cl)c(C(=O)Nc3cccc(OC(F)(F)F)c3)c2)[nH]1` [Compound 45, (Z)-3-(4-((5-(4-Chloro-3-((3-(trifluoromethoxy)phenyl)carbamoyl)phenyl)-1H-pyrrol-2-yl)methylene)-3-methyl-5-oxo-4,5-dihydro-1H-pyrazol-1-yl)benzoic acid], the IC50 on DNA-PK amounted to 0.53 ± 0.18 µM; at Ku70/80 it was 6.9 ± 1 µM.
For `COc1cccc(CNC(=O)c2cc(-c3ccc(/C=C4\C(=O)N(c5ccc(C(=O)O)cc5)N=C4C)o3)ccc2Cl)c1` [Compound 47, (Z)-4-(4-((5-(4-Chloro-3-((3-methoxybenzyl)carbamoyl)phenyl)furan-2-yl)methylene)-3-methyl-5-oxo-4,5-dihydro-1H-pyrazol-1-yl)benzoic acid], in that order: 0.48 ± 0.048 µM and > 25 µM.
`CC1=NN(c2ccc(C(=O)O)cc2)C(=O)/C1=C\c1ccc(-c2ccc(Cl)c(C(=O)NCc3ccccc3)c2)o1` [Compound 48, (Z)-4-(4-((5-(3-(Benzylcarbamoyl)-4-chlorophenyl)furan-2-yl)methylene)-3-methyl-5-oxo-4,5-dihydro-1H-pyrazol-1-yl)benzoic acid]: the results for the half-maximal inhibitory concentration (IC50) against DNA-PK and at Ku70/80 were 0.48 ± 0.016 µM and 22.4 ± 4.19 µM, respectively.
For `CC1=NN(c2ccc(C(=O)O)cc2)C(=O)/C1=C\c1ccc(-c2ccc(Cl)c(C(=O)NCc3cccnc3)c2)o1` [Compound 49, (Z)-4-(4-((5-(4-Chloro-3-((pyridin-3-ylmethyl)carbamoyl)phenyl)furan-2-yl)methylene)-3-methyl-5-oxo-4,5-dihydro-1H-pyrazol-1-yl)benzoic acid], in that order: 2.5 µM and > 25 µM.
`COc1cccc(NC(=O)c2cc(-c3ccc(/C=C4\C(=O)N(c5cccc(C(=O)O)c5)N=C4C(F)(F)F)o3)ccc2Cl)c1` [Compound 50, (Z)-3-(4-((5-(4-Chloro-3-((3-methoxyphenyl)carbamoyl)phenyl)furan-2-yl)methylene)-5-oxo-3-(trifluoromethyl)-4,5-dihydro-1H-pyrazol-1-yl)benzoic acid]: the “increase in DNA-PK inhibitory activity” value at DNA-PK (setting [1]) is on record as ~20 fold. Also, the “increase in Ku inhibitory activity” value on Ku70/80 (setting [1]) is reported as 2 fold. On Ku70/80, this compound registered an IC50 of 3.36 ± 0.52 µM.
`O=C(O)c1cccc(N2N=C(C(F)(F)F)/C(=C/c3ccc(-c4ccc(Cl)c(C(=O)NCC5CC5)c4)o3)C2=O)c1` [Compound 51, (Z)-3-(4-((5-(4-Chloro-3-((cyclopropylmethyl)carbamoyl)phenyl)furan-2-yl)methylene)-5-oxo-3-(trifluoromethyl)-4,5-dihydro-1H-pyrazol-1-yl)benzoic acid]: the IC50 at DNA-PK came out at 0.35 µM; on Ku70/80 it was 11.4 ± 8.26 µM.
For `O=C(O)c1cccc(N2N=C(C(F)(F)F)/C(=C/c3ccc(-c4ccc(Cl)c(C(=O)NCc5ccc(F)cc5)c4)o3)C2=O)c1` [Compound 52, (Z)-3-(4-((5-(4-Chloro-3-((4-fluorobenzyl)carbamoyl)phenyl)furan-2-yl)methylene)-5-oxo-3-(trifluoromethyl)-4,5-dihydro-1H-pyrazol-1-yl)benzoic acid], in that order: 0.25 µM and 9.15 ± 0.68 µM.
Taken in the same sequence, the figures for `COc1ccc(NC(=O)c2cc(-c3ccc(CC4C(=O)N(c5cccc(C(=O)O)c5)N=C4C)o3)ccc2Cl)cc1OC` (stereo not drawn) [Compound 54, 3-(4-((5-(4-Chloro-3-((3,4-dimethoxyphenyl)carbamoyl)phenyl)furan-2-yl)methyl)-3-methyl-5-oxo-4,5-dihydro-1H-pyrazol-1-yl)benzoic acid] were 1.12 ± 0.17 µM and 9.97 ± 0.4 µM.
For `COc1cccc(NC(=O)c2cc(-c3ccc(CC4C(=O)N(c5ccc(C(=O)O)cc5)N=C4C)o3)ccc2Cl)c1` (stereo not drawn) [Compound 55, 4-(4-((5-(4-Chloro-3-((3-methoxyphenyl)carbamoyl)phenyl)furan-2-yl)methyl)-3-methyl-5-oxo-4,5-dihydro-1H-pyrazol-1-yl)benzoic acid], the half-maximal inhibitory concentration (IC50) was determined as 0.808 ± 0.037 µM on DNA-PK and 7.67 ± 2.95 µM at Ku70/80.
As to `COc1cccc(CNC(=O)c2cc(-c3ccc(CC4C(=O)N(c5ccc(C(=O)O)cc5)N=C4C)o3)ccc2Cl)c1` (stereo not drawn) [Compound 56, 4-(4-((5-(4-Chloro-3-((3-methoxybenzyl)carbamoyl)phenyl)furan-2-yl)methyl)-3-methyl-5-oxo-4,5-dihydro-1H-pyrazol-1-yl)benzoic acid], the IC50 against DNA-PK came out at 0.49 ± 0.08 µM; on Ku70/80 it was 12.4 ± 3.8 µM.
For `COc1cccc(NC(=O)c2cc(-c3ccc(CC4C(=O)N(c5cccc(C(=O)O)c5)N=C4C)s3)ccc2Cl)c1` (stereo not drawn) [Compound 57, 3-(4-((5-(4-Chloro-3-((3-methoxyphenyl)carbamoyl)phenyl)thiophen-2-yl)methyl)-3-methyl-5-oxo-4,5-dihydro-1H-pyrazol-1-yl)benzoic acid], in that order: 0.4 ± 0.04 µM and 6.09 ± 0.36 µM.
Consider `CC1=NN(c2cccc(C(=O)O)c2)C(=O)C1Cc1ccc(-c2ccc(Cl)c(C(=O)NCc3ccc(F)cc3)c2)s1` (stereo not drawn) [Compound 60, 3-(4-((5-(4-Chloro-3-((4-fluorobenzyl)carbamoyl)phenyl)thiophen-2-yl)methyl)-3-methyl-5-oxo-4,5-dihydro-1H-pyrazol-1-yl)benzoic acid], for which the IC50 against DNA-PK was determined as 2.66 ± 1.74 µM; on Ku70/80, 4.1 ± 0.3 µM.
Regarding `O=C(O)c1cccc(N2N=C(C(F)(F)F)C(Cc3ccc(-c4ccc(Cl)c(C(=O)NCC5CC5)c4)o3)C2=O)c1` (stereo not drawn) [Compound 62, 3-(4-((5-(4-Chloro-3-((cyclopropylmethyl)carbamoyl)phenyl)furan-2-yl)methyl)-5-oxo-3-(trifluoromethyl)-4,5-dihydro-1H-pyrazol-1-yl)benzoic acid], the IC50 on Ku70/80 is 14.2 ± 0.21 µM.
As for `CC1=NN(c2ccc(S(N)(=O)=O)cc2)C(=O)/C1=C\c1ccc(-c2ccc(Cl)c(C(=O)NCC3CC3)c2)o1` [Compound 68, (Z)-2-Chloro-N-(cyclopropylmethyl)-5-(5-((3-methyl-5-oxo-1-(4-sulfamoylphenyl)-1,5-dihydro-4H-pyrazol-4-ylidene)methyl)furan-2-yl)benzamide], the IC50 on Ku70/80 was > 25 µM.
As to `COc1cccc(NC(=O)c2cc(-c3ccc(/C=C4\C(=O)N(c5cccc(C#N)c5)N=C4C)o3)ccc2Cl)c1` [Compound 74, (Z)-2-chloro-5-(5-((1-(3-cyanophenyl)-3-methyl-5-oxo-1,5-dihydro-4H-pyrazol-4-ylidene)methyl)furan-2-yl)-N-(3-methoxyphenyl)benzamide], the IC50 on Ku70/80 was > 25 µM. For the same compound, at Ku70/80 (carboxylic acid replaced by nitrile), the “Ku inhibitory activity (qualitative)” value is “complete abolition of Ku inhibitory activity”.

As usually defined, the IC50 is the concentration that inhibits the measured activity by half.
